Measured values from patent US4761398A, “Method of inducing birds to molt” (Embrex, Inc., priority 1986, dated 1988).

Tested on: single combed White Leghorn hens
Experiment: Hen-day egg production
Format: in vivo
Method: During the experiment, two birds were assigned to each cage (12"×18"). The hens were maintained in their cages for two weeks prior to the molt. They received a 17 hour light: 7 hour dark photoperiod throughout this phase of the experiment. During this time, the following parameters were measured:(a) body weight (weekly); (b) feed consumption (all hens received a common layer ration, and the feed consumed during this two week period was measured); (C) production records (daily); and (d), total egg weight, egg shell weight, and egg specific gravity (measured on three consecutive days each week). Serum samples were taken once, from 10 randomly selected hens from each treatment group, and saved for future study.
After the two week pre-molt adjustment period, the hens were randomly assigned to each of eight different groups. These treatment groups were as follows: (1) control, (2) forced molt, (3) chemical molt-injected, (4) vehicle control-injected, (5) chemical molt-microcapsules A, (6) vehicle control-microcapsules A, (7) chemical molt-microcapsules B, and (8) vehicle control-microcapsules B.
The hens then received a seven day pre-molt treatment of a 24 hour light, zero hour dark photoperiod. On day 14 of the experiment the photoperiod was then reduced to natural day length for all treatments. Feed was made available ad libitum for all groups except the forced molt group. The forced molt group was deprived of food, but not of water, until a 30% body weight loss occurred (10 days of fasting).
[D-Trp^6 ]LHRH was used as the LHRH receptor ligand for the chemical molt groups. The "chemical molt-injected" group received intramuscular (breast) injections of 25 micrograms/day of [D-Trp^6 ]LHRH for 10 consecutive days beginning on day 14. Alternate pectoral (breast) areas were injected each day. The "chemical molt-microcapsule" groups received a single intramuscular (breast) injection of microencapsulated [D-Trp^6 ]LHRH on day zero. This preparation of microcapsules provided a controlled release of 25 micrograms [D-Trp^6 ]LHRH per day for 15 consecutive days.
On day 14, the microcapsule injected groups received intramuscular injections of lactide/glycolide copolymer microcapsules which had [D-Trp^6 ]LHRH incorporated therein. The ligand-containing microcapsules administered the "Microcapsules A" group were prepared and supplied by Debiopharm (Lausanne, Switzerland). These microcapsules were prepared by a phase-separation process to produce a free-flowing powder of spherical particles consisting of [D-Trp^6 ]LHRH (2% wt/wt) distributed within a polymeric matrix of 53:47(mol %) poly(DL-lactide-co-glycolide) (98% wt/wt) with an inherent viscosity of 0.7 dl/g. The microcapsules were 50 micrometers or less in diameter. […] Photomicrographs of similar microcapsules are presented in T. W. Redding, et al., Proc. Natl. Acad. Sci. U.S.A., 81, 5845 (Sept. 1984).
Microcapsules were suspended in disposable syringes in vehicle containing 2% carboxymethyl cellulose and 1% "TWEEN 20" in water. After thoroughly mixing the suspension, aliquots calculated to have released a dose of 25 micrograms/day for 15 consecutive days were injected into the breast muscle of the hens. We weighed the microcapsules directly into disposable 3 ml syringes. The plunger of a plugged syringe containing microcapsules (without vehicle) was pulled back to the 1.5-2 cc mark. The hub of the syringe was then placed against a vortex mixer and the syringe vortexed rapidly for about 20 seconds, or until most of the clumps of microbeads were broken and distributed along the barrel of the syringe. An 18 gauge needle was then attached and 0.7 to 1.0 ml of […] injection vehicle was drawn into the syringe. With the needle in an upward position, the syringe was again placed against a vortex mixer and vortexed rapidly for 20 seconds, or until a suspension of microbeads was formed in the vehicle. […]

[D-Trp^6 ]LHRH [D-Trp^6 --LHRH]
HEN-DAY EGG PRODUCTION Reported By Weeks (listed as Day 5): 61.508%
HEN-DAY EGG PRODUCTION Reported By Weeks (listed as Day 12): 26.984%
HEN-DAY EGG PRODUCTION Reported By Weeks (listed as Day 17): 4.683%
HEN-DAY EGG PRODUCTION Reported By Weeks (listed as Day 22): 7.619%
HEN-DAY EGG PRODUCTION Reported By Weeks (listed as Day 27): 30.000%
HEN-DAY EGG PRODUCTION Reported By Weeks (listed as Day 33): 58.095%
HEN-DAY EGG PRODUCTION Reported By Weeks (listed as Day 40): 63.333%
HEN-DAY EGG PRODUCTION Reported By Weeks (listed as Day 47): 67.143%
HEN-DAY EGG PRODUCTION Reported By Weeks (listed as Day 54): 76.667%
HEN-DAY EGG PRODUCTION Reported By Weeks (listed as Day 61): 80.000%
HEN-DAY EGG PRODUCTION Reported By Weeks (listed as Day 75): 76.667%
HEN-DAY EGG PRODUCTION Reported By Weeks (listed as Day 82): 73.889%
HEN-DAY EGG PRODUCTION Reported By Weeks (listed as Day Zero): 63.889%
